Laboratory results published in article PMC6983093, “Ketoprofen-Based Ionic Liquids: Synthesis and Interactions with Bovine Serum Albumin” (Molecules, 2019).
“And” between values parts separate entries of the source, which are not always exact repeats. Equal values may be shown once.

What was measured:
[1] = molecular target: T1, bovine serum albumin (BSA) (Bos taurus, UniProt P02769); experiment: Steady-state FRET between BSA fluorophores and compound; assay type: binding; conditions: [BSA] = [Quencher] = 2 μM; T = 25 °C
T1 construct: Bovine serum albumin (BSA), heat shock fraction, protease-free, fatty acid-free, essentially globulin free (pH 7, ≥98%); purchased Merck (Darmstadt, Germany)
T1 sequence (P02769 25-607): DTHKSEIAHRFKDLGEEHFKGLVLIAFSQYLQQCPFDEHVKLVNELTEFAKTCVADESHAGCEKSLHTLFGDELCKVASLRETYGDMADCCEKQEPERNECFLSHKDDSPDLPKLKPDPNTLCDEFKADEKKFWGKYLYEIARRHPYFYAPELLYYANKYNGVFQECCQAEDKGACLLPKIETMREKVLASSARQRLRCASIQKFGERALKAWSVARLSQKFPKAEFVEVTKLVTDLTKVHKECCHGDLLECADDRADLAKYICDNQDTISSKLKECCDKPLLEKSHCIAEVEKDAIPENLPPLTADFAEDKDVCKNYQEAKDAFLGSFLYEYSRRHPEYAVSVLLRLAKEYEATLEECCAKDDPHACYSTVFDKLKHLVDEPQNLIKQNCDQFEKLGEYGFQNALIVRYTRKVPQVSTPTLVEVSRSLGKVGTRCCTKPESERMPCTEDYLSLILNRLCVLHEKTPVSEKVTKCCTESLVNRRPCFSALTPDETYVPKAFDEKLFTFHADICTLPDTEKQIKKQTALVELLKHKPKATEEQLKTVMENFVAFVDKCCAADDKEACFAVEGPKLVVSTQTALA
Description: The following equations are used to estimate the steady-state FRET parameters:(3) E=1−F/Fo=Ro^6/Ro^6+ro^6, (4) Ro^6=8.8x10^−25K^2n^−4ϕJ, (5) J=∑F(λ)ε(λ)λ^4Δλ/∑F(λ)Δλ, where E is energy transfer efficacy, Ro is the characteristic distance called Förster distance or critical distance at which the energy transfer efficacy is 50%, ro is the distance between the quencher (drug) and the BSA fluorophores. […] F(λ) is the fluorescence intensity of the fluorescence of the donor, ε(λ) (L mol^−1 cm^−1) is the molar absorption coefficient of the acceptor at wavelength λ.
(§1) BSA-ILs incubated 1 hour prior to the measurements.

[2] = molecular target: T1, bovine serum albumin (BSA); experiment: BSA fluorescence quenching (Stern–Volmer and double-log analysis); assay type: binding; conditions: 25 °C; for bimolecular quenching rate constant kq: pH 7.4, τo taken as 10^−8 s; for Binding constant KA / Stern–Volmer quenching constant Ksv: sodium phosphate buffer pH 7.4, 50 mM; for Stern–Volmer quenching constant Ksv: BSA 2 μM, λex 280 nm
Protocol: The fluorescence quenching data are analyzed according to the Stern–Volmer Equation (1):(1) Fo/F=1+kqτqo[Q]=1+Ksv[Q], where Fo and F is the fluorescence peak intensities in the absence and in the presence of quencher.
The maximum scatter quenching constant Kq that is due to collisions between biomolecules is 2 × 10^10 L mol^−1 s^−1 [33].
The dependence of log(Fo−F/F) vs. log[Q] is linear with a slope equal to the number of the binding sites, and y-intercept corresponds to the log of the effective binding constant (KA).
All fluorescence measurements were carried out on Perkin Elmer LS 55 fluorimeter equipped with a 1.0 cm quartz cuvette.
as §1

[3] = molecular target: T1, bovine serum albumin (BSA); experiment: ATR-FTIR analysis of the Amide I band of BSA-compound complexes (secondary structure); conditions: for α-Helices, Relative Area of Amide I band component: BSA 0.3 mM : compound 1:1, phosphate buffer pH 7.4, 50 mM, native BSA 47.3; for Unordered Structures, Relative Area of Amide I band component: '-' = no band, native BSA 21
Protocol: In the spectra of proteins, the Amide I band region (1700–1600 cm^−1) is mainly due to the starching vibrations of the carbonyl group (80%) and is highly sensitive to the changes in the geometry and the environment of the amide bonds. […] The band assignments were done according to Jackson and Mantsch and the analysis of the structure was taken into consideration the data on the BSA available in the literature.
The spectra of the proteins were referenced to the respective spectra of 50 mM sodium phosphate buffer, pH 7.4 containing the same amount of the corresponding IL.
Then the ATR-FTIR spectra were Fourier deconvoluted by Opus software version 5.5 using a bandwidth of 12 cm^−1, 2.9 resolution enhancement factor, and Lorentzian lineshape. Second derivative spectra were obtained using the Savitzky-Golay algorithm based on 17 smoothing points. Then, the relative contribution of each band component of the Amide I band was determined by curve fitting following the procedure of the OPUS program. In the fitting, the number of components and the initial values of their position were set as determined from the second derivative spectra. The initial bandwidth of all components was set to 12 cm^−1 and the components were approximated by mixed Lorentzian/Gaussian functions. The curve-fitting was performed according to the Local Least Squares algorithm. The assignment of the Amide I band positions to the secondary structure was done according to [36].

cytochrome C oxidase = molecular target: cytochrome C oxidase; design: method as in doi:10.1016/j.molliq.2017.02.027; conditions: cited from earlier work; for IC50: read-out: IC50 for the inhibition of cytochrome C oxidase
[4] = Thermogravimetric analysis (thermal stability, TG); conditions: heating 10 °C min^−1, air atmosphere
[5] = BSA:compound 1:1, pH 7.4, one value per band, in the order of the band positions of the column to the left

β-Structures, Relative Area of Amide I band components [3, 5] | Molecule | EFRET (energy transfer efficacy) [1] | Ro (Förster critical distance) [1] [nm] | ro (distance between quencher and BSA fluorophores) [1] [nm] | bimolecular quenching rate constant kq [2] | Binding constant KA [2] | Stern–Volmer quenching constant Ksv [2] | α-Helices, Relative Area of Amide I band component [3] [%] | Effect on the secondary structure of BSA (in words) ([3]; BSA:compound 1:1, pH 7.4) | Unordered Structures, Relative Area of Amide I band component ([3]; BSA:compound 1:1, pH 7.4) [%] | IC50 (cytochrome C oxidase) [mM] | Tonset (onset of the thermal degradation) [4] [°C] | Aromatic Residues/Aggregated Strands/Antiparallel β-Sheets, Relative Area of Amide I band components [3, 5] [%] | Toxicity relative to the parent sodium salt (cytochrome C oxidase)
– | L-Valine Isopropyl Ester Ketoprofenate [[L-ValOiPr][KETO]] | 0.0625 | 3.38 | 5.42 | 7.1 10^12, L mol^−1 s^−1 | 1.5 10^5, L mol^−1 | 7.1 10^4, L mol^−1 | 23.8 | most dramatic changes in the secondary structure | 11.7 | – | – | – | –
– | CC(C(=O)O)c1cccc(C(=O)c2ccccc2)c1 (stereo not shown) [sodium ketoprofenate] | – | – | – | – | – | – | – | – | – | ~0.0006 | – | – | –
– | L-Valine Propyl Ester Ketoprofenate [[L-ValOPr][KETO]] | 0.1770 | 3.46 | 4.74 | 7.1 10^12, L mol^−1 s^−1 | 2.3 10^5, L mol^−1 | 7.1 10^4, L mol^−1 | 26.9 | – | 29.2 | – | 52.3 | 11.0 | –
– | COc1ccc2cc(C(C)C(=O)[O-])ccc2c1.C[N+](C)(C)CCO (stereo not shown) [cholinium naproxenate] | – | – | – | – | – | – | – | – | – | – | – | – | more toxic than its parent sodium salt
– | L-Valine Butyl Ester Ketoprofenate [[L-ValOBu][KETO]] | 0.0520 | 3.32 | 5.48 | 7.3 10^12, L mol^−1 s^−1 | 7.5 10^5, L mol^−1 | 7.3 10^4, L mol^−1 | 27.8 | – | – | – | 101.1 | – | –
– | CC(C(=O)O)c1cccc(C(=O)c2ccccc2)c1 (stereo not shown) [cholinium ketoprofenate] | – | – | – | – | – | – | – | – | – | ~21.3 | – | – | –
– | L-Valine Ethyl Ester Ketoprofenate [[L-ValOEt][KETO]] | 0.1830 | 3.43 | 4.68 | 6.3 10^12, L mol^−1 s^−1 | 8.2 10^5, L mol^−1 | 6.3 10^4, L mol^−1 | 28.8 | – | 17.25 | – | 100.4 | – | –
13.5% and 13.7% | L-Leucine Ethyl Ester Ketoprofenate [[L-LeuOEt][KETO]] | 0.0246 | 3.30 | 6.14 | 8.3 10^12, L mol^−1 s^−1 | 7.1 10^5, L mol^−1 | 8.3 10^4, L mol^−1 | 36.7 | very close to the native BSA conformation | 21.5 | – | – | – | –
